Experiment: Agonist activity at androgen receptor expressed in mouse C2C12 cells assessed as osteoblast differentiation after 5 days

Cc1c(N[C@@H](c2nnc(-c3ccc(C#N)cc3)o2)[C@H](C)O)ccc(C#N)c1Cl [2-chloro-4-((1R,2S)-1-(5-(4-cyanophenyl)-1,3,4-oxadiazol-2-yl)-2-hydroxypropylamino)-3-methylbenzonitrile]
EC50: 100 pM

Reference: BindingDB's records for doi:10.1021/ml1002508 (2011)
